Earlier results, collected in US20060159736A1, “Liposome formulations of boronic acid compounds” (priority 2004, published 2006).
Read-outs that look alike come from different tables or passages of the source.

What was measured:
[1] = intravenous bolus on days 1, 4, 8, and 11 of a 3-week cycle
[2] = given intravenously once or twice weekly; patients with solid tumors
[3] = test system: cancer tissues (breast, ovarian, prostate, lung) and tumors (pancreatic tumors, lymphomas, melanoma)
[4] = test system: human prostate cancer xenograft; details: human prostate xenograft models
[5] = test system: lung cancer xenograft; details: lung cancer xenograft models
[6] = test system: tumor lines; details: range of tumor lines

CC(C)C[C@H](NC(=O)[C@H](Cc1ccccc1)NC(=O)c1cnccn1)B(O)O [bortezomib]
maximum tolerated dose [1]: 1.56 mg/m^2 | maximum tolerated dose [2]: 1.3 mg/m^2 | activity against cancer tissues and tumors [3]: activity against a variety of cancer tissues | antitumor activity [4]: had antitumor activity | antitumor activity [5]: had antitumor activity | cytotoxicity [6]: showed cytotoxicity against a range of tumor lines
